Assay results taken from PubChem BioAssay (NCI).
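All cell lines were grown in 96-well plates and treated with compound for 48 hours. GI50 = concentration required for 50% inhibition of growth. The concentration for full growth arrest is given as TGI.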

Columns and labels:
Test in all cases: growth of human tumour cells (NCI), 48 h
M14 melanoma = tested on: M14 melanoma
OVCAR-3 ovarian = tested on: OVCAR-3 ovarian
UO-31 renal = tested on: UO-31 renal
SNB-75 CNS = tested on: SNB-75 CNS
OVCAR-5 ovarian = tested on: OVCAR-5 ovarian
UACC-62 melanoma = tested on: UACC-62 melanoma
LOX IMVI melanoma = tested on: LOX IMVI melanoma
BT-549 breast = tested on: BT-549 breast
MCF7 breast = tested on: MCF7 breast
DU-145 prostate = tested on: DU-145 prostate
HCT-15 colon = tested on: HCT-15 colon
MALME-3M melanoma = tested on: MALME-3M melanoma
EKVX NSCLC = tested on: EKVX NSCLC
SW-620 colon = tested on: SW-620 colon
OVCAR-4 ovarian = tested on: OVCAR-4 ovarian
ACHN renal = tested on: ACHN renal
NCI-H460 lung = tested on: NCI-H460 lung
SK-MEL-5 melanoma = tested on: SK-MEL-5 melanoma
PC-3 prostate = tested on: PC-3 prostate
K-562 leukemia = tested on: K-562 leukemia
HOP-62 NSCLC = tested on: HOP-62 NSCLC
HCT-116 colon = tested on: HCT-116 colon
OVCAR-8 ovarian = tested on: OVCAR-8 ovarian
MDA-MB-435 = tested on: MDA-MB-435
SF-295 CNS = tested on: SF-295 CNS
MOLT-4 leukemia = tested on: MOLT-4 leukemia
MDA-MB-231 breast = tested on: MDA-MB-231 breast
TK-10 renal = tested on: TK-10 renal
IGROV1 ovarian = tested on: IGROV1 ovarian
CAKI-1 renal = tested on: CAKI-1 renal
SK-MEL-28 melanoma = tested on: SK-MEL-28 melanoma
HT29 colon = tested on: HT29 colon
SN12C renal = tested on: SN12C renal
SNB-19 CNS = tested on: SNB-19 CNS
SR leukemia = tested on: SR leukemia
SK-MEL-2 melanoma = tested on: SK-MEL-2 melanoma
UACC-257 melanoma = tested on: UACC-257 melanoma
HL-60(TB) leukemia = tested on: HL-60(TB) leukemia
CCRF-CEM leukemia = tested on: CCRF-CEM leukemia
A549 NSCLC = tested on: A549 NSCLC
SF-268 CNS = tested on: SF-268 CNS
HS 578T breast = tested on: HS 578T breast
HOP-92 NSCLC = tested on: HOP-92 NSCLC
SF-539 CNS = tested on: SF-539 CNS
SK-OV-3 ovarian = tested on: SK-OV-3 ovarian
RXF 393 renal = tested on: RXF 393 renal
RPMI-8226 leukemia = tested on: RPMI-8226 leukemia
HCC-2998 colon = tested on: HCC-2998 colon
T-47D breast = tested on: T-47D breast
NCI-H23 lung = tested on: NCI-H23 lung
NCI/ADR-RES ovarian = tested on: NCI/ADR-RES ovarian
KM12 colon = tested on: KM12 colon
786-0 renal = tested on: 786-0 renal
COLO 205 colon = tested on: COLO 205 colon
A498 renal = tested on: A498 renal
NCI-H226 lung = tested on: NCI-H226 lung
U251 CNS = tested on: U251 CNS

Work on `N#C/C(=N\Nc1ccc(F)cc1)C(=O)Nc1cc(-c2ccccc2)nn1-c1ccccc1` yielded a GI50 (M14 melanoma) of 2.84 µM, a TGI (M14 melanoma) greater than 100 µM and a GI50 (OVCAR-3 ovarian) of 2.4 µM. For the same molecule, the TGI (OVCAR-3 ovarian) was 15.6 µM, the GI50 (UO-31 renal) was 2.5 µM and the TGI (UO-31 renal) was 13.4 µM. The GI50 (SNB-75 CNS) was 1.93 µM, the TGI (SNB-75 CNS) was 8.45 µM and the GI50 (OVCAR-5 ovarian) was 3.52 µM. The TGI (OVCAR-5 ovarian) was 17.2 µM, the GI50 (UACC-62 melanoma) was 0.853 µM and the TGI (UACC-62 melanoma) was 17 µM. The GI50 (LOX IMVI melanoma) was 4.54 µM, the TGI (LOX IMVI melanoma) was 17.7 µM and the GI50 (BT-549 breast) was 2.11 µM. It also gave a TGI (BT-549 breast) of 11.2 µM, a GI50 (MCF7 breast) of 2.11 µM and a TGI (MCF7 breast) of 11.4 µM. For the same molecule, the GI50 (DU-145 prostate) was 3.62 µM, the TGI (DU-145 prostate) was 20.8 µM and the GI50 (HCT-15 colon) was 2.34 µM. It also gave a TGI (HCT-15 colon) of 45.4 µM, a GI50 (MALME-3M melanoma) of 1.85 µM and a TGI (MALME-3M melanoma) of 13.4 µM. It also gave a GI50 (EKVX NSCLC) of 2.84 µM, a TGI (EKVX NSCLC) of 15.3 µM and a GI50 (SW-620 colon) of 3.16 µM. For the same molecule, the TGI (SW-620 colon) was 20.4 µM, the GI50 (OVCAR-4 ovarian) was 2.39 µM and the TGI (OVCAR-4 ovarian) was 21.8 µM. The GI50 (ACHN renal) was 2.55 µM, the TGI (ACHN renal) was 10.5 µM and the GI50 (NCI-H460 lung) was 2.02 µM. The TGI (NCI-H460 lung) was 10.2 µM, the GI50 (SK-MEL-5 melanoma) was 0.821 µM and the TGI (SK-MEL-5 melanoma) was 3.16 µM. For the same molecule, the GI50 (PC-3 prostate) was 1.77 µM, the TGI (PC-3 prostate) was 8.7 µM and the GI50 (K-562 leukemia) was 1.45 µM. It also gave a TGI (K-562 leukemia) of 12.8 µM, a GI50 (HOP-62 NSCLC) of 2.69 µM and a TGI (HOP-62 NSCLC) of 11.2 µM. For the same molecule, the GI50 (HCT-116 colon) was 2.16 µM, the TGI (HCT-116 colon) was 11.5 µM and the GI50 (OVCAR-8 ovarian) was 2.61 µM. It also gave a TGI (OVCAR-8 ovarian) of 63.8 µM, a GI50 (MDA-MB-435) of 2.55 µM and a TGI (MDA-MB-435) greater than 100 µM. For the same molecule, the GI50 (SF-295 CNS) was 1.66 µM, the TGI (SF-295 CNS) was 5.75 µM and the GI50 (MOLT-4 leukemia) was 2.16 µM. For the same molecule, the TGI (MOLT-4 leukemia) was 9.92 µM, the GI50 (MDA-MB-231 breast) was 1.99 µM and the TGI (MDA-MB-231 breast) was 5.6 µM. For the same molecule, the GI50 (TK-10 renal) was 3.43 µM, the TGI (TK-10 renal) was 16.2 µM and the GI50 (IGROV1 ovarian) was 3.69 µM. It also gave a TGI (IGROV1 ovarian) of 18.3 µM, a GI50 (CAKI-1 renal) of 1.56 µM and a TGI (CAKI-1 renal) of 8.72 µM. For the same molecule, the GI50 (SK-MEL-28 melanoma) was 3.35 µM, the TGI (SK-MEL-28 melanoma) was 77.2 µM and the GI50 (HT29 colon) was 3.07 µM. The TGI (HT29 colon) was 11.6 µM, the GI50 (SN12C renal) was 1.83 µM and the TGI (SN12C renal) was 8.45 µM. The GI50 (SNB-19 CNS) was 2.99 µM, the TGI (SNB-19 CNS) was 13.4 µM and the GI50 (SR leukemia) was 2.27 µM. For the same molecule, the TGI (SR leukemia) was 8.74 µM, the GI50 (SK-MEL-2 melanoma) was 1.22 µM and the TGI (SK-MEL-2 melanoma) was 5.01 µM. For the same molecule, the GI50 (UACC-257 melanoma) was 1.54 µM, the TGI (UACC-257 melanoma) was 8.69 µM and the GI50 (HL-60(TB) leukemia) was 1.89 µM. The TGI (HL-60(TB) leukemia) was 5.43 µM, the GI50 (CCRF-CEM leukemia) was 1.21 µM and the TGI (CCRF-CEM leukemia) was 9.31 µM. The GI50 (A549 NSCLC) was 2.45 µM, the TGI (A549 NSCLC) was 15.6 µM and the GI50 (SF-268 CNS) was 2.37 µM. The TGI (SF-268 CNS) was 25.9 µM, the GI50 (HS 578T breast) was 3.39 µM and the TGI (HS 578T breast) was 53.8 µM. It also gave a GI50 (HOP-92 NSCLC) of 0.427 µM, a TGI (HOP-92 NSCLC) of 3.85 µM and a GI50 (SF-539 CNS) of 3.26 µM. For the same molecule, the TGI (SF-539 CNS) was 12.8 µM, the GI50 (SK-OV-3 ovarian) was 1.61 µM and the TGI (SK-OV-3 ovarian) was 6.39 µM. For the same molecule, the GI50 (RXF 393 renal) was 2.24 µM, the TGI (RXF 393 renal) was 7 µM and the GI50 (RPMI-8226 leukemia) was 0.75 µM. For the same molecule, the TGI (RPMI-8226 leukemia) was 4.48 µM, the GI50 (HCC-2998 colon) was 3.61 µM and the TGI (HCC-2998 colon) was 19.3 µM. The GI50 (T-47D breast) was 1.63 µM, the TGI (T-47D breast) was greater than 100 µM and the GI50 (NCI-H23 lung) was 1.75 µM. The TGI (NCI-H23 lung) was 10.6 µM, the GI50 (NCI/ADR-RES ovarian) was 2.85 µM and the TGI (NCI/ADR-RES ovarian) was 12.1 µM. For the same molecule, the GI50 (KM12 colon) was 2.75 µM, the TGI (KM12 colon) was 33.4 µM and the GI50 (786-0 renal) was 3.41 µM. It also gave a TGI (786-0 renal) of 14 µM, a GI50 (COLO 205 colon) of 1.82 µM and a TGI (COLO 205 colon) of 3.6 µM. For the same molecule, the GI50 (A498 renal) was 0.141 µM, the TGI (A498 renal) was 2.86 µM and the GI50 (NCI-H226 lung) was 2.84 µM. It also gave a TGI (NCI-H226 lung) of 13.7 µM, a GI50 (U251 CNS) of 3.04 µM and a TGI (U251 CNS) of 13.2 µM.
